Measurements published in article PMC3093256, “Synthesis of 1-Substituted Carbazolyl-1,2,3,4-tetrahydro- and Carbazolyl-3,4-dihydro-β-carboline Analogs as Potential Antitumor Agents” (Marine Drugs, 2011).
In brackets after ≈: the same amount, converted by molar mass.

Experiments:
[1] = molecular target: T1, human DNA topoisomerase I (Homo sapiens, UniProt P11387); assay: Relaxation assay of topoisomerase I (supercoiled pBR322); type: biochemical; conditions: five concentrations 5, 10, 25, 50 and 100 μg/mL; read-out: Inhibition of DNA topoisomerase I IC50 (converted)
T1 construct: purchased TopoGen
T1 sequence (P11387 1-765): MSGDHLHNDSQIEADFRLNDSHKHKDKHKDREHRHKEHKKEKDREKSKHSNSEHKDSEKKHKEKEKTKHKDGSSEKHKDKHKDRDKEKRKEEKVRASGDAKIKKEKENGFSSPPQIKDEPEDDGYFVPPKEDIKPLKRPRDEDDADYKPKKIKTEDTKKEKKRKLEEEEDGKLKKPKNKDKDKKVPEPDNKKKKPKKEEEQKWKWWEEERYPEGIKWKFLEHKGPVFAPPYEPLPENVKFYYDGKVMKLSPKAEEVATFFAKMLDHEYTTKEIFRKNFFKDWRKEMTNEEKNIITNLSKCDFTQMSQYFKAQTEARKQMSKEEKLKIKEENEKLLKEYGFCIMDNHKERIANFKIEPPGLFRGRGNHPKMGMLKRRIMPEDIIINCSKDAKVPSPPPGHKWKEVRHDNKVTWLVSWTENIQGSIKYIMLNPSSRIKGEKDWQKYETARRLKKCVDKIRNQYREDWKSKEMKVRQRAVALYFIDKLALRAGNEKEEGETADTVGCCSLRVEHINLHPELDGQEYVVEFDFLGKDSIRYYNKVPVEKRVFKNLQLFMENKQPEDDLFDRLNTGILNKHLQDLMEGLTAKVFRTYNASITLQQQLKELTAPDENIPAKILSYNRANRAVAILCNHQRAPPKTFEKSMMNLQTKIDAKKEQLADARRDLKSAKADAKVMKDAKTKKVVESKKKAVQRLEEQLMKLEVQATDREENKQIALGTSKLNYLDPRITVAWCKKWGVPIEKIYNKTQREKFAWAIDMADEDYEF
Method: (§1) Topoisomerases I and II (topo I and II) assays were measured by assessing relaxation of supercoiled pBR322 plasmid DNA according to [24]. […] In summary, topo I (TopoGen) was mixed with the test sample and 10° volume of assay buffer (100 mM Tris-HCl, 10 mM EDTA, 1.5 M NACl, 1.0% BSA, […], and 50% glycerol), and then supercoiled DNA (pBR322) was added. In topo II assay, the mixture contained test sample and buffer including 50 mM Tris-HCl, 120 mM KCl, 10 mM MgCl2, 0.5 mM ATP, 0.5 mM dithiothreitol, 2 μg BSA, pBR322 plasmid DNA (0.25 μg), and 3U of topo II (TopoGen) in final volume of 20 μL. After incubation of topo I or topo II mixture for 30 min at 37 °C, 2 λ 10% SDS and 2.5 λ proteinase K were added for 1 h. The reaction mixtures were electrophoresed on a 2% agarose gel (50 V, 20 min; 100 V, 30 min; 110 V, 30 min) and stained with ethidium bromide. Finally, by a densitometer of ImageMaster® (Fujifilm thermal imaging system, FTI-500), the gels were directly scanned and the area representing supercoiled DNA was calculated.

[2] = system: KB (human mouth epidermoid carcinoma); assay: Cytotoxicity assay, KB cells; type: cell-based; conditions: 72 h, 3 days incubation, by interpolation
Method: (§2) The cytotoxic activities of compounds against KB (human mouth epidermoid carcinoma), DLD (human colon adenocarcinoma), NCI-H661 (human lung large cell carcinoma), Hepa (human hepatoma), and HepG2/A2 (human hepatoblastoma) cells were assayed by the […] assay as previously described. The cells for assay were cultured in RPMI-1640 medium supplemented with […] in an incubator at 37 °C. The cytotoxicity assay depends on the binding of methylene blue to fixed monolayers of cells at pH 8.5, washing the monolayer, and releasing the dye by lowering the pH value. Samples and control standard drugs were prepared at a concentration of 1, 10, 40, and 100 μg/mL. After seeding 2880 cells/well in a 96-well microplate for 3 h, 20 μL of sample or standard agent was placed in each well and incubated at 37 °C for 3 days. After removing the medium from the microplates, the cells were fixed with 10% formaldehyde in 0.9% saline for 30 min, then dyed with 1% (w/v) methylene blue in 0.01 M borate-buffer (100 μL/well) for 30 min. The 96-well plate was dipped into a 0.01 M borate-buffer solution four times in order to remove the dye. Then, 100 μL/well of EtOH-0.1 M HCl (1:1) was added as a dye eluting solvent, and the absorbance was measured on a microtiter plate reader (Dynatech, MR 7000) at a wavelength of 650 nm. […] Doxorubicin was used as a standard compound.

[3] = system: HepG2/A2 (human hepatoma); assay: Cytotoxicity assay, HepG2/A2 cells; type: cell-based; conditions: for IC50: Homo sapiens, 72 h, HepG2/A2 cells, 3 days incubation, by interpolation
Method: as §2

[4] = system: DLD (human colon adenocarcinoma); assay: Cytotoxicity assay, DLD cells; type: cell-based; conditions: for IC50: Homo sapiens, 72 h, 3 days incubation, by interpolation
Method: as §2

[5] = system: NCI-H661 (human lung large cell carcinoma); assay: Cytotoxicity assay, NCI-H661 cells; type: cell-based; conditions: 72 h, 3 days incubation, by interpolation
Method: as §2

[6] = molecular target: T2, human DNA topoisomerase II (Homo sapiens, UniProt P11388); assay: Relaxation assay of topoisomerase II (supercoiled pBR322); type: biochemical; conditions: for inhibition of DNA topoisomerase II (in words): compared with etoposide; for IC50: five concentrations 5, 10, 25, 50 and 100 μg/mL, read-out: Inhibition of DNA topoisomerase II IC50 (converted); for fold more potent against topoisomerase II compared to etoposide: relative to etoposide
T2 construct: purchased TopoGen
T2 sequence (P11388 whole entry): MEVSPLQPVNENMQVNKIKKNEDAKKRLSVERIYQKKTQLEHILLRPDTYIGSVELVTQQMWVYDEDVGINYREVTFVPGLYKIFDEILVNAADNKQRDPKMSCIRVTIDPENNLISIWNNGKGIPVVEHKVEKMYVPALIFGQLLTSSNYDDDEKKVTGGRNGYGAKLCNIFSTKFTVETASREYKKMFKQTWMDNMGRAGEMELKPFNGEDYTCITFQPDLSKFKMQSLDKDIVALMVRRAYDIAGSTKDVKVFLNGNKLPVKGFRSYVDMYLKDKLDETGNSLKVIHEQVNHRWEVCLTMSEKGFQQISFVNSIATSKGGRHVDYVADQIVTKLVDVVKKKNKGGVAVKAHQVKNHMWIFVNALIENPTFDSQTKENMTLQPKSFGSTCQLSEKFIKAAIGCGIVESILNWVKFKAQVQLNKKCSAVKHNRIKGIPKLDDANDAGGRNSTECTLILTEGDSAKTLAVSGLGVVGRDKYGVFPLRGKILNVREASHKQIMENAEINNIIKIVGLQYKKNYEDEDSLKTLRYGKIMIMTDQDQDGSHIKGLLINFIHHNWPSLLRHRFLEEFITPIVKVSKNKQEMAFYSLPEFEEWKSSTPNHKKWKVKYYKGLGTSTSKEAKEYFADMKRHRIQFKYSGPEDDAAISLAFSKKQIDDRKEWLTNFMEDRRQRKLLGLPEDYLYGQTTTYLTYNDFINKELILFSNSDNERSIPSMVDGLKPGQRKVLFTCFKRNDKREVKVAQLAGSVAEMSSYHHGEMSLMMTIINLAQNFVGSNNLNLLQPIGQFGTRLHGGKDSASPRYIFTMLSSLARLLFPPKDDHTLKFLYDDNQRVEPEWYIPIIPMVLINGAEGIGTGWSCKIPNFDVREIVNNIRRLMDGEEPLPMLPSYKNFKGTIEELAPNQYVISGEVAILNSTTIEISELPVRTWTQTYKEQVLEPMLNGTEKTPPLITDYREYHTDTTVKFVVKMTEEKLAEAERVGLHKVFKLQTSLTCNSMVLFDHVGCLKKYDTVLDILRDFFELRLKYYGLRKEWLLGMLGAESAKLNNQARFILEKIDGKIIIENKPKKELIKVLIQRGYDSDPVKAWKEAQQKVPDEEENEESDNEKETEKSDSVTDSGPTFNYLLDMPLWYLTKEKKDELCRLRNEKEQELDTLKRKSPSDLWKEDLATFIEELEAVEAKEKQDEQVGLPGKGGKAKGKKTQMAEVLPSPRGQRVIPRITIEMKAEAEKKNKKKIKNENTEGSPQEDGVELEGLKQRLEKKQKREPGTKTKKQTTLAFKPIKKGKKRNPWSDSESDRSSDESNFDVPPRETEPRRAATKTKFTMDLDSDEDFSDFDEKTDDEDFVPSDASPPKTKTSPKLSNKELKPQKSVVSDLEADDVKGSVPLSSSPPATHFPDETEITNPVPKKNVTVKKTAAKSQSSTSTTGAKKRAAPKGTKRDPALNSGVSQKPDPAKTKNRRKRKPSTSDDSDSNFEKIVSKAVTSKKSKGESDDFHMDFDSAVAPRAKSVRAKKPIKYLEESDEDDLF
Method: as §1

Hepa (human hepatoma) = assay: Cytotoxicity assay, Hepa cells; type: cell-based; conditions: 72 h, 3 days incubation, by interpolation
Method: as §2

Compound	IC50 [1] [µM]	IC50 [2] [µg/mL]	IC50 [3] [µg/mL]	IC50 [4] [µg/mL]	IC50 [5] [µg/mL]	inhibition of DNA topoisomerase II (in words) [6]	IC50 [6] [µM]	fold more potent against topoisomerase II compared to etoposide [6]	melting point [°C]	IC50 (Hepa (human hepatoma)) [µg/mL]	cytotoxicity against HepG2/A2 (in words) ([3]; HepG2/A2 tumor cells)	activity in DLD assay (in words) [4]
CCCn1c2ccccc2c2cc(C3NCCc4c3[nH]c3ccccc43)ccc21 (stereo not drawn) [Compound 3, 1-(9′-Propyl-3′-carbazolyl)-1,2,3,4-tetrahydro-β-carboline]	124	1.84 (≈ 4.85 µM)	6.1 (≈ 16.1 µM)	1.58 (≈ 4.16 µM)	2.14 (≈ 5.64 µM)	most potent	4.22	10- to 15 fold	110 to 112	–	–	–
CCC(C)n1c2ccccc2c2cc(C3NCCc4c3[nH]c3ccccc43)ccc21 (stereo not drawn) [Compound 5, 1-(9′-[1″-Methyl]propyl-3′-carbazolyl)-1,2,3,4-tetrahydro-β-carboline]	> 254	3 (≈ 7.62 µM)	–	–	–	–	25.4	–	127 to 130	2.25 (≈ 5.72 µM)	–	–
CCCCCn1c2ccccc2c2cc(C3=NCCc4c3[nH]c3ccccc43)ccc21 [Compound 8, 1-(9′-Pentyl-3′-carbazolyl)-3,4-dihydro-β-carboline]	143	> 20	5.4 (≈ 13.3 µM)	1.29 (≈ 3.18 µM)	3.39 (≈ 8.36 µM)	–	54.2	–	97 to 98	–	active	–
CCCCCCCCCCn1c2ccccc2c2cc(C3NCCc4c3[nH]c3ccccc43)ccc21 (stereo not drawn) [Compound 13, 1-(9′-Decyl-3′-carbazolyl)-1,2,3,4-tetrahydro-β-carboline]	> 209	6.36 (≈ 13.3 µM)	> 60	10.4 (≈ 21.8 µM)	13.9 (≈ 29.1 µM)	–	58.6	–	102 to 104	–	–	–
CCCCCCCCn1c2ccccc2c2cc(C3=NCCc4c3[nH]c3ccccc43)ccc21 [Compound 12, 1-(9′-Octyl-3′-carbazolyl)-3,4-dihydro-β-carboline]	> 223	9.13 (≈ 20.4 µM)	30.1 (≈ 67.2 µM)	2.55 (≈ 5.7 µM)	5.28 (≈ 11.8 µM)	–	64.8	–	91 to 92	–	–	–
CCC(C)n1c2ccccc2c2cc(C3=NCCc4c3[nH]c3ccccc43)ccc21 (stereo not drawn) [Compound 6, 1-(9′-[1″-Methyl]propyl-3′-carbazolyl)-3,4-dihydro-β-carboline]	> 255	0.48 (≈ 1.23 µM)	–	–	–	–	66.4	–	151 to 154	2.67 (≈ 6.82 µM)	–	–
CC(C)CCn1c2ccccc2c2cc(C3=NCCc4c3[nH]c3ccccc43)ccc21 [Compound 10, 1-(9′-[3″-Methylbutyl]-3′-carbazolyl)-3,4-dihydro-β-carboline]	165	3.13 (≈ 7.72 µM)	–	–	–	most potent	6.66	10- to 15 fold	135 to 137	4.4 (≈ 10.8 µM)	–	–
CCCCCn1c2ccccc2c2cc(C3NCCc4c3[nH]c3ccccc43)ccc21 (stereo not drawn) [Compound 7, 1-(9′-Pentyl-3′-carbazolyl)-1,2,3,4-tetrahydro-β-carboline]	218	3.45 (≈ 8.46 µM)	20.5 (≈ 50.3 µM)	3.75 (≈ 9.2 µM)	0.22 (≈ 0.54 µM)	most potent	6.62	–	129 to 130	–	–	–
CCn1c2ccccc2c2cc(C3=NCCc4c3[nH]c3ccccc43)ccc21 [Compound 2, 1-(9′-Ethyl-3′-carbazolyl)-3,4-dihydro-β-carboline]	> 275	0.71 (≈ 1.95 µM)	0.6 (≈ 1.65 µM)	1.09 (≈ 3 µM)	0.84 (≈ 2.31 µM)	–	23.4	–	175 to 177	–	–	–
CC(C)CCn1c2ccccc2c2cc(C3NCCc4c3[nH]c3ccccc43)ccc21 (stereo not drawn) [Compound 9, 1-(9′-[3″-Methylbutyl]-3′-carbazolyl)-1,2,3,4-tetrahydro-β-carboline]	236	2.96 (≈ 7.26 µM)	–	–	–	most potent	6.87	10- to 15 fold	99 to 101	1.12 (≈ 2.75 µM)	–	–
CCCCCCCCn1c2ccccc2c2cc(C3NCCc4c3[nH]c3ccccc43)ccc21 (stereo not drawn) [Compound 11, 1-(9′-Octyl-3′-carbazolyl)-1,2,3,4-tetrahydro-β-carboline]	> 222	> 20	20.7 (≈ 46 µM)	1.57 (≈ 3.49 µM)	> 20	–	66.7	–	87 to 89	–	–	active
CCn1c2ccccc2c2cc(C3NCCc4c3[nH]c3ccccc43)ccc21 (stereo not drawn) [Compound 1, 1-(9′-Ethyl-3′-carbazolyl)-1,2,3,4-tetrahydro-β-carboline]	> 274	3.47 (≈ 9.49 µM)	–	1.69 (≈ 4.62 µM)	1.82 (≈ 4.98 µM)	–	26	–	240 to 242	–	–	–
CCCn1c2ccccc2c2cc(C3=NCCc4c3[nH]c3ccccc43)ccc21 [Compound 4, 1-(9′-Propyl-3′-carbazolyl)-3,4-dihydro-β-carboline]	> 265	2.72 (≈ 7.21 µM)	5.1 (≈ 13.5 µM)	2.16 (≈ 5.72 µM)	5.02 (≈ 13.3 µM)	most potent	5.56	10- to 15 fold	126 to 128	–	–	–
